The text below walks through data of PubChem BioAssay AID493102 (Broad Institute, 2011).

For this experiment, the system named is SK-MEL-5 TRPM1-promoter luciferase reporter, 24 h. Nature of the experiment: TRPM1 promoter luciferase signal decrease, dose response, MITF inhibitor project, cell-based, SK-MEL-5, cherry-picked, set 4 (AID 493102).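 Note: actives lower the luciferase signal so the potency reflects inhibition of reporter expression.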
As for `O=C(/C=C/c1cccc([N+](=O)[O-])c1)c1cccs1`, the AC50 was 15.3 µM.

In the case of `CC(C)n1c(O)c(C2c3cc(Cl)ccc3Oc3[nH]c(=O)n(C(C)C)c(=O)c32)c(=O)[nH]c1=O` (stereo not drawn), the AC50 is 5.39 µM. The value for `COc1ccc(N(Cc2cc(=O)[nH]c3ccccc23)C(=O)CCl)cc1` was 10.9 µM. The value for `COc1ccc(-n2ncc3c(N4CCCCC4)ncnc32)cc1` was 1.48 µM.

In the case of `O=C(COc1ccccc1)N/N=C/c1ccc([N+](=O)[O-])o1`, the AC50 is 21.5 µM.

Regarding `O=C(CCCN1C(=O)S/C(=C\c2ccccc2)C1=O)NNC(=O)c1ccccc1O`, the AC50 was 33.9 µM. The value for `O=S(=O)(CC(CN1CCCCC1)N1CCCCC1)c1ccc2ccccc2c1` (stereo not drawn) was 12.5 µM; that for `COc1cnc(-c2ccccn2)nc1NC(C)C` was 12.4 µM. The result for `Cc1cc(C(=O)CN2C(=O)c3ccccc3S2(=O)=O)c(C)n1-c1ccccc1` reads 3.45 µM; that for `O=C(CNc1cccc([N+](=O)[O-])c1)N/N=C/c1ccc([N+](=O)[O-])o1`, 8.63 µM; that for `N#C/C(=C(/O)CCl)c1nc2ccccc2[nH]1`, 4.6 µM. The result for `O=C(Cc1ccc2c(c1)OCO2)NN=Cc1ccc([N+](=O)[O-])o1` reads 8.55 µM. As for `[2H]C(CCOS(N)(=O)=O)c1ccc(C(C)(C)C)cc1` (stereo not drawn), the AC50 was 0.487 µM. In the case of `O=C(c1ccc([N+](=O)[O-])s1)N1CCCc2ccccc21`, the AC50 was 11.2 µM. The result for `COc1cc(/C=N/NS(=O)(=O)c2ccc3ccccc3c2)ccc1OCc1ccc(C(=O)O)cc1` reads 4.78 µM; that for `Nc1nc2ccccc2n1/N=C/c1ccc([N+](=O)[O-])s1`, 2.81 µM. The result for `N=c1n(CCN2CCCC2)c2ccccc2n1CC(O)c1ccc(Cl)c(Cl)c1` (stereo not drawn) reads 11.8 µM; that for `CC(=O)OCCNc1cc(Sc2nc3ccccc3[nH]2)c2nonc2c1[N+](=O)[O-]`, 11.5 µM.

Turning to `O=C1Nc2ccc(Br)cc2/C1=C/C(=O)c1ccc2c(c1)OCO2`, the AC50 was 25.5 µM.

On to `CN1C/C(=C/c2cccnc2)C(=O)/C(=C/c2cccnc2)C1`, for which the AC50 was 5.31 µM. The value for `CC(C)(C)c1ccc(Cn2c(=N)n(CC(O)c3ccco3)c3ccccc32)cc1` (stereo not drawn) was 11.8 µM; that for `O=C(CCl)N1c2ccccc2CCc2ccccc21` was 5.54 µM.

On to `CN(C)S(=O)(=O)c1ccc(-c2csc(N/N=C/c3ccco3)n2)cc1`, for which the AC50 was 3.9 µM.

In the case of `CC(C)CN=C(NS(=O)(=O)c1ccccc1)C(Cl)(Cl)Cl`, the AC50 was 11.1 µM. The result for `CC(C)(C)c1ccc(-c2cc(N)n[nH]2)cc1` reads 0.511 µM.

For the compound `Cc1ccc(C(=O)c2no[n+]([O-])c2C(=O)c2ccc(C)cc2)cc1`, the AC50 is 16.7 µM.

For `Cc1ccc(S(=O)(=O)Nc2cccc3cccnc23)cc1`, the AC50 was 5.55 µM. Consider `COc1ccc(CNCCC(c2ccc(F)cc2)c2ccc(OC)cc2)cc1` (stereo not drawn), for which the AC50 is 9.89 µM. The result for `COc1ccc(/C=N/Nc2cc(C)nc(-n3nc(C)cc3C)n2)c(OC)c1` reads 10.4 µM; that for `O=C(Cn1ncc(Cl)c(Cl)c1=O)NCC1CCCCC1`, 7.39 µM. The result for `O=C(N/N=C/c1cc(Cl)ccc1O)c1ccncc1` reads 8.98 µM; that for `CC(=O)NC1=C(N(C)C2CCS(=O)(=O)C2)C(=O)c2ccccc2C1=O` (stereo not drawn), 21.2 µM. Consider `CCCCn1c(=O)[nH]c(=O)c2c1nc(Cn1ncc(Cl)c(Cl)c1=O)n2CCC`, for which the AC50 is 8.12 µM. As to `O=C(Nc1ccc(N2CCN(C(=O)c3ccc(Cl)cc3)CC2)cc1)c1ccc([N+](=O)[O-])o1`, the AC50 is 7.32 µM.

Turning to `CC(C)C(=O)NC(c1ccco1)c1ccc2cccnc2c1O` (stereo not drawn), the half-maximal activity concentration (AC50) is 8.18 µM. The result for `COc1cccc(C(=O)N/N=C(/c2ccccc2)c2ccccn2)c1` reads 5.8 µM; that for `O=[N+]([O-])c1cc(S(=O)(=O)N2CCCCCC2)ccc1F`, 9.53 µM; that for `O=C(CCl)Nc1cccc(S(=O)(=O)NC2=NCCCCC2)c1`, 7.85 µM. Regarding `CC1CCC(C(C)C)C(OC(=O)Cn2c(-c3ccc(Br)cc3)[n+](C)c3ccccc32)C1` (stereo not drawn), the AC50 is 7.12 µM.

Regarding `Nc1ccc(-c2nc3c(Cl)cc(N)cc3[nH]2)cc1`, the AC50 was 3.76 µM.

On to `COc1ccccc1NC(=O)c1cnc(SCC(=O)NCC2CCCO2)n(C)c1=O` (stereo not drawn), for which the AC50 was 8.88 µM.

For `O=[N+]([O-])/C=C\c1ccc(N2CCOCC2)cc1`, the AC50 is 13.6 µM. The result for `Cc1ccc(C2=NN(C(=O)CCl)C(c3cccs3)C2)o1` (stereo not drawn) reads 6.1 µM. The result for `O=C(N/N=C/c1ccccc1Cl)c1n[nH]c2c1CCCC2` reads 7.97 µM; that for `CCN(CC)CCCNC1=C(Cl)C(=O)c2ccccc2C1=O`, 1.79 µM. The value for `Cc1cc(C)c2c(N)c(C(=O)Nc3ncc(C)s3)sc2n1` was 1.09 µM; that for `CCN(CC)S(=O)(=O)c1cccc(C(=O)N/N=C(\C)c2ccc(O)cc2O)c1` was 3.74 µM. Regarding `Cc1cccc(NC2=C(NC(=O)c3ccccc3)C(=O)c3ccccc3C2=O)c1`, the AC50 was 9.99 µM. The value for `CN1CCC(N(C)C(=O)/C=C/c2cn(-c3ccccc3)nc2-c2cccs2)CC1` was 9.82 µM; that for `CN(C)c1ccc(/C=C2\SC(=O)N(CCc3nnc(N)s3)C2=O)cc1` was 2.54 µM.

As to `CCN1CCN(c2ccc(NC(=O)c3ccc([N+](=O)[O-])o3)cc2Cl)CC1`, the AC50 was 9.54 µM. The value for `Cc1ccc(C(=O)N/N=C\c2ccc([N+](=O)[O-])s2)cn1` was 2.95 µM. The value for `O=C(CCl)N1c2ccccc2SCC1c1ccccc1` (stereo not drawn) was 4.2 µM; that for `Cc1ccc(N2C(=O)NC(=O)/C(=C/C=C/c3ccco3)C2=O)cc1` was 5.97 µM; that for `CCOc1cc(/C=N/Nc2cccc(C(=O)O)c2)ccc1OC(=O)c1ccccc1` was 1.38 µM. The result for `O=C1NC(=S)NC(=O)C1=Cc1cccc2cc3ccccc3cc12` reads 4.81 µM; that for `COc1cc(/C=N/NC(N)=O)c(Br)cc1OCC(=O)Nc1ccccc1C`, 17.8 µM; that for `Cc1cc(N2CCOCC2)ccc1/C=C\[N+](=O)[O-]`, 22.5 µM.

For the compound `Cc1ccc(-c2cc(-c3ccc(C)cc3)[n+](C)o2)cc1`, the half-maximal activity concentration (AC50) was 8.24 µM. The result for `CC(=O)N(\C=C/C=C/C=C1\Sc2ccccc2C1=O)c1ccccc1` reads 8 µM; that for `CC(NC(=O)C12CC3CC(CC(C3)C1)C2)C(=O)NN=Cc1ccc([N+](=O)[O-])o1` (stereo not drawn), 7.79 µM; that for `Cc1ccc(C(=O)N/N=C/c2ccc([N+](=O)[O-])s2)cc1`, 2.2 µM. Turning to `Cc1cc(C)c(C#N)c(SCc2nnc(-c3ccccc3)o2)n1`, the AC50 was 0.024 µM. In the case of `Cc1ccccc1OCC(=O)Nc1cccc(C(=O)O)c1`, the AC50 was 1.05 µM. As to `COc1ccc2nc(C)cc(SCC(=O)N/N=C/c3ccc(O)cc3O)c2c1`, the AC50 was 10.1 µM. The result for `CC1=NC(=O)C(N=Nc2cccc(C(=O)O)c2)N1c1ccccc1` (stereo not drawn) reads 8.62 µM; that for `CC[n+]1c(/C=C/N(C)c2ccccc2)sc2ccc(Cl)cc21`, 9.07 µM. The result for `COc1ccccc1C(=O)Nc1nc(-c2ccc(S(=O)(=O)N3CCOCC3)cc2)cs1` reads 4.34 µM; that for `Cc1ccc(C)c(-n2c3nc(=O)[nH]c(=O)c-3cc3cc([N+](=O)[O-])ccc32)c1`, 8.42 µM. The value for `COCCCn1[nH]c2c3c(ccc2c1=O)C(=O)c1ccccc1C3=O` was 8.86 µM. Take `Cc1ccc(-n2nnnc2CNC(=O)c2ccc([N+](=O)[O-])o2)cc1C`: the AC50 was 9.72 µM. The result for `O=C(Nc1ccc2oc(-c3cccnc3)nc2c1)c1ccc([N+](=O)[O-])o1` reads 14.2 µM; that for `CCSCCc1nnc(NC(=O)Nc2cccc(C(F)(F)F)c2)s1`, 8.99 µM; that for `COc1cc2c(cc1OC)C(C)N(S(=O)(=O)c1cnc(Cl)c(Cl)c1)CC2` (stereo not drawn), 12.1 µM. The value for `C=C1C(=O)O[C@@H]2[C@H]1[C@@H](OC(=O)/C(C)=C/C)C/C(C)=C\C(=O)/C=C(\C)[C@@H]2O` was 7.07 µM; that for `O=C(Nc1ccc(OC(=O)N2CCCCC2)cc1)N1CCOCC1` was 27.4 µM; that for `CC(C)(C)NC(=O)CCN(/N=C/c1ccc([N+](=O)[O-])o1)C1=NS(=O)(=O)c2ccccc21` was 7.18 µM. The result for `CC(/C=N/NC(=O)c1cc(-c2ccncc2)nc2ccccc12)=C\c1ccco1` reads 2.4 µM; that for `Cc1ccc(NC(=O)c2ccc([N+](=O)[O-])o2)cc1S(=O)(=O)N1CCOCC1`, 11.4 µM.

As to `Cc1ccc(C(C)C)c(OCc2nn(CC(=O)c3ccc(Cl)cc3)c3[n+]2CCCCC3)c1`, the AC50 was 9.83 µM. The result for `Cc1cc(C)cc(NC(=O)c2ccc([N+](=O)[O-])o2)c1` reads 16.6 µM; that for `CN1CCN(c2ccc(NC(=S)NC(=O)c3cccc4ccccc34)cc2)CC1`, 9 µM; that for `O=C(Nc1nc2cc3c(cc2s1)OCO3)C1=COCCO1`, 3.77 µM. The result for `CC(/C=C1\SC(=O)N(CCCC(=O)O)C1=O)=C\c1ccccc1` reads 2.36 µM; that for `CCOC(=O)c1cc([N+](=O)[O-])c([N+](=O)[O-])cc1NC(C)=O`, 24.2 µM; that for `COC1=C(Nc2ccccc2)C(=O)c2ccccc2C1=O`, 4.53 µM. The result for `CC(=O)c1cccc(NC(=O)/C=C/c2ccc([N+](=O)[O-])s2)c1` reads 7.16 µM; that for `COc1ccc(C(=O)/C=C/Nc2ccccn2)cc1`, 3.72 µM; that for `CN(C)CCCN(C(=O)c1ccc(Cl)s1)c1nc2cc3c(cc2s1)OCO3`, 22.9 µM.

For `CCOc1ccc(-n2c(O)c(/C=N/Nc3nc(C)cc(C)n3)c3ccccc3c2=O)cc1`, the AC50 is 3.48 µM. The value for `O=C(NC1CCCC(C(F)(F)F)C1)c1ccc([N+](=O)[O-])o1` (stereo not drawn) was 11.2 µM; that for `O=[N+]([O-])c1cccc2c(N3CCCC3)ccnc12` was 2.47 µM; that for `COc1cc2nc(SCC(=O)NCc3ccco3)n(Cc3ccc(Cl)cc3)c(=O)c2cc1OC` was 13.2 µM.

In the case of `CCOC(=O)N1C(=O)[C@](CC)(c2ccccc2)N1C(=O)OCC`, the AC50 is 10 µM. The value for `COc1ccc2nc(N3CCN(C(=O)c4ccc([N+](=O)[O-])o4)CC3)sc2c1` was 5.81 µM. The value for `COc1ccc(Br)cc1C(C[N+](=O)[O-])c1c(N)n(C)c(=O)n(C)c1=O` (stereo not drawn) was 8.73 µM; that for `Cc1ccc(-c2c[n+](Cc3ccc(Cl)cc3)c3n2CCC3)cc1` was 14.2 µM; that for `Cc1oc(-c2ccc(Cl)cc2)nc1CN1CCC(C(=O)NCCCN2CCCC(C)C2)CC1` (stereo not drawn) was 13.2 µM.

The term AC50 denotes the midpoint of the concentration-response curve, whichever way the signal moves.
